Measured values: ChEMBL document CHEMBL2396560, “Discovery of (R)-4-cyclopropyl-7,8-difluoro-5-(4-(trifluoromethyl)phenylsulfonyl)-4,5-dihydro-1H-pyrazolo[4,3-c]quinoline (ELND006) and (R)-4-cyclopropyl-8-fluoro-5-(6-(trifluoromethyl)pyridin-3-ylsulfonyl)-4,5-dihydro-2H-pyrazolo[4,3-c]quinoline (ELND007): metabolically stable γ-secretase …” (J Med Chem, 2013)

How the values were obtained:
[1] = target: Gamma-secretase (Homo sapiens) (UniProt Q96BI3+Q9NZ42+Q8WW43+P49768+Q92542+P49810); experiment: Selctivity ratio of IC50 for partially purified human gamma-secretase-mediated cleavage of notch fusion protein to IC50 for partially purified human gamma-secretase-mediated cleavage of MBP-APPc125Sw fusion protein; assay type: protein-complex assay
CHO [2] = experiment: Inhibition of gamma-secretase in CHO cells assessed expressing NotchdeltaE assessed as inhibition of notch cleavage after overnight incubation by luciferase reporter gene assay; assay type: cell-based; conditions: Cricetulus griseus
Liver [3] = experiment: Glucuronidation metabolism in mouse liver microsomes assessed as compound remaining; assay type: ADME, Microsome
Liver [4] = experiment: Oxidative metabolism in dog liver microsomes assessed as compound remaining; assay type: ADME, Canis lupus familiaris, Microsome
Gamma-secretase [5] = experiment: Inhibition of partially purified human gamma-secretase-mediated cleavage of notch fusion protein measured after overnight incubation by ELISA; assay type: protein-complex assay
Liver microsomes [6] = experiment: Oxidative metabolism in human liver microsomes assessed as compound remaining; assay type: ADME, Microsome
CHO [7] = experiment: Inhibition of gamma-secretase in CHO cells assessed expressing APPSw assessed as inhibition of amyloid beta(1 to x) secretion after overnight incubation by ELISA; assay type: cell-based; conditions: Cricetulus griseus
CHO [8] = experiment: Selctivity ratio of ED50 for gamma-secretase in CHO cells assessed expressing NotchdeltaE assessed as inhibition of notch cleavage to ED50 for gamma-secretase in CHO cells assessed expressing APPSw assessed as inhibition of amyloid beta(1 to x) secretion; assay type: cell-based; conditions: Cricetulus griseus
Liver [9] = experiment: Glucuronidation metabolism in dog liver microsomes assessed as compound remaining; assay type: ADME, Canis lupus familiaris, Microsome
Liver microsomes [10] = experiment: Glucuronidation metabolism in human liver microsomes assessed as compound remaining; assay type: ADME, Microsome
Liver microsomes [11] = experiment: Glucuronidation metabolism in rat liver microsomes assessed as compound remaining; assay type: ADME, Microsome
Liver microsomes [12] = experiment: Oxidative metabolism in rat liver microsomes assessed as compound remaining; assay type: ADME, Microsome
Liver [13] = experiment: Oxidative metabolism in mouse liver microsomes assessed as compound remaining; assay type: ADME, Microsome
Gamma-secretase [14] = experiment: Inhibition of partially purified human gamma-secretase-mediated cleavage of MBP-APPc125Sw fusion protein measured after overnight incubation by ELISA; assay type: protein-complex assay

Row | Structure (SMILES) | Ratio IC50 [1] | Stability (Liver [3]) | Stability (Liver [4]) | IC50 (Gamma-secretase [5]) | Stability (Liver microsomes [6]) | Stability (Liver [9]) | Stability (Liver microsomes [10]) | Stability (Liver microsomes [11]) | Stability (Liver microsomes [12]) | Stability (Liver [13]) | IC50 (Gamma-secretase [14]) | ED50 (CHO [2]) | ED50 (CHO [7]) | Ratio ED50 (CHO [8])
1 | O=S(=O)(c1ccc(Cl)cc1)N1[C@H]2CCC[C@@H]1c1cn[nH]c1C2 | – | 4% | 2% | – | 50% | 100% | 0% | 0% | 5% | 15% | – | 690 nM | 5.2 nM | –
2 | O=S(=O)(c1ccc(Cl)cc1)N1Cc2c[nH]nc2-c2ccccc21 | – | 81% | 0% | 250 nM | 0% | 89% | 11% | 93% | 0% | 3% | 327 nM | 9400 nM | 100 nM | 94
3 | O=S(=O)(c1ccc(Cl)cc1)N1Cc2c[nH]nc2-c2cc(F)ccc21 | 7.3 | 80% | 0% | 160 nM | 0% | 86% | 69% | 91% | 0% | 5% | 22 nM | 7400 nM | 99 nM | 75
4 | C[C@@H]1c2c[nH]nc2-c2cc(F)ccc2N1S(=O)(=O)c1ccc(F)cc1 | 33 | 84% | 49% | 43 nM | 17% | 84% | 70% | 82% | 21% | 22% | 1.3 nM | 410 nM | 7.8 nM | 54
5 | O=S(=O)(c1ccc(Cl)cc1)N1Cc2c[nH]nc2-c2ccc(F)cc21 | 5.8 | 77% | 0% | 220 nM | 1% | 83% | 3% | 99% | 0% | 22% | 38 nM | 11000 nM | 160 nM | 69
6 | C[C@@H]1c2c[nH]nc2-c2cc(F)ccc2N1S(=O)(=O)c1ccc(Cl)cc1 | 23 | 91% | 40% | 14 nM | 1% | 97% | – | 92% | 2% | 7% | – | 170 nM | 2.7 nM | 63

The remaining compounds from weak to strong by IC50 (Gamma-secretase [5]), led by results:

Row | Ratio IC50 [1] | Stability (Liver [3]) | Stability (Liver [4]) | IC50 (Gamma-secretase [5]) | Stability (Liver microsomes [6]) | Stability (Liver [9]) | Stability (Liver microsomes [10]) | Stability (Liver microsomes [11]) | Stability (Liver microsomes [12]) | Stability (Liver [13]) | IC50 (Gamma-secretase [14]) | Structure (SMILES) | ED50 (CHO [2]) | ED50 (CHO [7]) | Ratio ED50 (CHO [8])
7 | 29 | 93% | 47% | 9.6 nM | 24% | 89% | 75% | 91% | 51% | 52% | 0.33 nM | O=S(=O)(c1ccc(F)cc1)N1c2cc(F)c(F)cc2-c2n[nH]cc2[C@H]1C1CC1 | 85 nM | 1.3 nM | 65
8 | 13 | 11% | 0% | 4.7 nM | 1% | 38% | 1% | 1% | 1% | 1% | 0.37 nM | CC[C@H]1Cc2n[nH]cc2[C@@H](CC)N1S(=O)(=O)c1ccc(Cl)cc1 [ENT A] | 71 nM | 0.75 nM | 95
9 | 15 | 98% | 46% | 2.7 nM | 36% | 99% | 99% | 87% | 40% | 51% | 0.18 nM | O=S(=O)(c1ccc(C(F)(F)F)cc1)N1c2ccccc2-c2n[nH]cc2[C@H]1C1CC1 | 26 nM | 0.41 nM | 63
